Data on two compounds can be found in patent US20220356169A1, “TETRAZINES FOR HIGH CLICK RELEASE SPEED AND YIELD” (priority 2019, published 2022).

Data set [1] is described as follows: Second-order rate constant of the IEDDA reaction with TCO 3.2, stopped-flow UV-Vis, pseudo first-order conditions. Type of data set: physicochemical. The settings on record: 25% MeCN/PBS at 20° C.; mean ± SD (n = 5). As to the method:
(§1) The second-order rate constant of the IEDDA reaction between model TCO 3.2 and activators 2.7 or 2.8 in MeCN at 20° C. was determined (n=1) by UV-Vis spectrometry under second-order conditions. A cuvette was filled with a solution of activator (3 mL 0.083 mM in MeCN), and equilibrated at 20° C. Next, a solution of TCO 3.2 (10.0 μL, 25 mM in DMSO) was added. The absorption at 540 nm was measured every second in a time course experiment. From the decay of this absorption, the conversion x was calculated. The second-order rate constant k2 was determined from the slope of the curve of a plot of 1/c-1/c0 versus time. The second-order rate constant of the IEDDA reaction between model TCO 3.2 and activators 2.7, 2.8, 2.14, 2.16, or 2.17 in 25% MeCN/PBS at 20° C. was determined (n=5) by stopped-flow UV-Vis spectrometry under pseudo first-order conditions. Tetrazine solutions (0.25 mM in 25% MeCN/PBS) and TCO 3.2 (3.45 mM in 25% MeCN/PBS) were mixed in a volume ratio of 1:1, resulting in a concentration of 0.125 mM and 1.73 mM, respectively. The absorption at 520 nm was measured every 50 ms, and from the decay of this absorption, the pseudo first-order rate constant k1′ was determined by a nonlinear Simplex regression analysis of the data points using BioKine software. The second-order rate constant k2 was calculated: k2=k1′/c,TCO. As expected for a cycloaddition reaction, the reactivity in PBS is much higher than in MeCN, and importantly the tetrazines of the invention are at least 1 order of magnitude more reactive than the known and high-releasing 3,6-bismethyl-tetrazine (2.17), while giving similar release yields (see Example 7).

Data set [2] can be described thus: Activator stability in PBS at rt (UV decay at 520 nm). Type of data set: physicochemical. As to conditions: mean ± SD (n = 3). As to the method:
The assessment of activator stability was performed in PBS at rt. Solutions in DMSO (2.5 mM, 20 μL) were diluted with PBS (3.00 mL), filtered, and incubated at rt. The decrease of the absorption band at 520 nm was monitored using UV spectroscopy.

Data set [3] is described as follows: Cell proliferation assay (MTT). The format is cell-based. The settings on record: human, 3 days incubation, mean ± SEM (n = 6), read-out: LS174T cell viability (%); for viability at 72 h, 0.01 μM: 0.01 μM activator; for viability at 72 h, 0.1 μM: 0.1 μM activator; for viability at 72 h, 1 μM: 1 μM activator. As to the method:
The human colon carcinoma LS174T cell line was obtained from the American Type Culture Collection and cultured in RPMI-1640 medium supplemented with 2 mM glutamine and 10% heat inactivated fetal calf serum. Twenty-four hours prior to the experiment, the cells were plated in 96-well plates at a 5000 cells/well density. The cells were then incubated with serial dilutions (10 nM-1 μM; n=6) of activators 2.7, 2.8, 2.14, 2.16, 2.17, 2.18 and 2.19 in culture medium for 72h at 37° C. The % cell proliferation was assessed by an MTT assay, in comparison to cells incubated in culture medium without activator. No toxicity was observed when the LS174T cells were incubated with the tested activators (and possible metabolites formed in the presence of serum) for 3-days at a 0.01-1 μM activator concentration.

A short description of data set [4]: Second-order rate constant of the IEDDA reaction with TCO 3.2, UV-Vis under second-order conditions in MeCN. The format is physicochemical. As to conditions: MeCN at 20° C.; n = 1. The method, then:
as §1, with “As expected for a cycloaddition reaction, the reactivity in PBS is much higher than in MeCN, and importantly the tetrazines of the invention are at least 1 order of magnitude more reactive than the known and high-releasing 3,6-bismethyl-tetrazine (2.17), while giving similar release yields (see Example 7).” left out

Another data set relates to ADC AVP0458-TCO-MMAE. As to the kind of experiment: Triggered drug (MMAE) release from ADC in 50% mouse plasma, HPLC-SIM-MS. The settings on record: for MMAE release from ADC AVP0458-TCO-MMAE, Release (%) / MMAE release level, in words: 50% mouse plasma, 37° C.; for MMAE release level, in words: after 24h incubation. The method, then: In a 1.5 mL vial, the following was combined: 650 μL mouse plasma, 600 μL PBS, 20 μL ADC (1.62 μg/μL in PBS) and 7.5 μL d8-MMAE solution (0.167 μg/μL, internal standard). Next, aliquots of 20 μL were prepared to which 5.2 μL of a tetrazine solution (0.25 mM in 1:1 DMSO/H2O) was added and the solution was incubated at 37° C. At various times, 100 μL of cold MeCN was added to the aliquot and the mixture was vortexed, stored at 4° C. for 30 min. and centrifuged. 20 μL of supernatant was taken and combined with 100 μL of 1% formic acid (aq) solution. This sample was analysed with HPLC-SIM-MS to quantify the ratio of free MMAE and d8-MMAE, which is a measure of the release yield.

Data set [5] concerns LS174T xenografts. As to the kind of experiment: MMAE measurement in tumors. Type of data set: in vivo, mice. As to the method:
Female nude Balb/C mice were subcutaneously inoculated ca. 1×10^6 LS174T cells in the hind limb. Biodistribution studies started when the tumors reached 0.1-0.2 cm^3 size. Experiments were carried out to evaluate the reactivity between the TCO Trigger on tumor-bound ADC and activators 2.7, 2.8, 2.14 and 2.16 in LS174T xenografts, as previously performed for other activators [Rossin et al Nature Communications 2018, 9, 1484]. The activators were administered at a 20- to 100-lower dose than that used in previous activation and therapy studies (ca. 0.335 mmol/kg). […] Groups of tumor bearing mice (n=4) were injected with ^125I-labeled ADC (2 mg/kg) followed 48 h later by the activators (dose 1×: ca. 3.3 μmol/kg; dose 5×: ca. 16.7 μmol/kg) and, after 1 h, by [^111In]In-2.20 (ca. 0.33 μmol/kg). One group was injected with the same amount of ^125I-labeled ADC followed only by ^111In-2.20 49 h later. One group was injected only with ^111In-2.20 (non-specific probe binding). All mice were euthanized 23 h post-probe injection and the ^125I and ^111In uptakes in tumors were measured by γ-counting.
The concentration of MMAE released in tumors was measured as previously reported [Rossin et al Nature Communications 2018, 9, 1484]. […] For this reason, activator 2.16 was selected for a therapy study in combination with the click-cleavable ADC. At the doses of tc-ADC (4 mg/kg) and 2.16 (dose 10×; 33.5 μmol/kg) used for therapy study, a high level of 339±45 nM free MMAE was detected in tumors.

Data set [6] deals with LS174T xenografts. The experiment in a line: Therapy study in mice with LS174T xenografts. The format is in vivo. As to the method:
Groups of 10 female nude Balb/C mice were s.c. inoculated ca. 1×10^6 LS174T cells in the hindlimb and the therapy study started when the tumors became palpable (5-11 days after tumor cell inoculation). One group was administered four cycles (one cycle every 4 days) of tc-ADC (ca. 4 mg/kg) followed by activator 2.16 (ca. 33.5 μmol/kg) 48 later. Control groups received four cycles of ADC alone, activator alone, or vehicle. Tumor sizes and body weights were measured 2-3 times per week. […] On the contrary, all control mice were euthanized within 3 weeks from the beginning of the treatment due to large tumor size (>1.5 gr) or poor health conditions with a 15.5-17.5 days median survival. Overall, the repeated treatments were tolerated well by the mice, with no overt signs of hematological toxicity that could be attributed to the use of ADC and activator, either in combination or alone.

Where [7] appears, read: 2 min after reaction with activator.

Usually half-life stands for the time needed for the level to fall by half in the phase considered. High values mean slow decline, low ones rapid decline. The term viability denotes a read-out of living cells in per cent, often relative to untreated cells.

Consider `Oc1cnccc1-c1nnc(-c2ccncc2O)nn1` [2.8, 4,4′-(1,2,4,5-Tetrazine-3,6-diyl)bis(pyridin-3-ol)], for which, in data set [1], the “Calculated k2 values for the reaction between tetrazine activators and TCO 3.2 in PBS” value was 270 ± 11 M⁻¹ s⁻¹. In data set [2], this compound had a half-life at 16.6 µM of 6.5 ± 0.6 h. The viability at 72 h, 0.01 μM in data set [3] was determined as 96.9 ± 3.6%. Further, in data set [3], the viability at 72 h, 0.1 μM amounted to 98.4 ± 3.6%. The viability at 72 h, 1 μM in data set [3] was determined as 93.9 ± 5.2%. In addition, the “Calculated k2 values for the reaction between tetrazine activators and TCO 3.2 in MeCN” value in data set [4] is 10 M⁻¹ s⁻¹. The “MMAE release from ADC AVP0458-TCO-MMAE, Release (%)” value with ADC AVP0458-TCO-MMAE (setting [7]) is 48.7%; in the data set on ADC AVP0458-TCO-MMAE (10 min), 83.4%; in the data set with ADC AVP0458-TCO-MMAE (1 h) it was 92.7%; with ADC AVP0458-TCO-MMAE (5 h), 93.6%; with ADC AVP0458-TCO-MMAE (24 h, mean ± SD (n = 3)), 94.3 ± 1.3%. Further, the “MMAE release level, in words” value in the data set on ADC AVP0458-TCO-MMAE is “as high as that obtained with the less reactive 2.17”. In addition, the “MMAE release speed, in words” value with ADC AVP0458-TCO-MMAE (compared with 2.17) was “faster”.

As to `O=C(CCCC(=O)Nc1cnccc1-c1nnc(-c2ccncc2NC(=O)CCCC(=O)NCCOCCOCCOCCOCCOCCOCCOCCOCCOCCO)nn1)NCCOCCOCCOCCOCCOCCOCCOCCOCCOCCO` [2.16, N^1,N^1′-(4,4′-(1,2,4,5-Tetrazine-3,6-diyl)bis(pyridine-4,3-diyl))bis(N^5-(29-hydroxy-3,6,9,12,15,18,21,24,27-nonaoxanonacosyl)glutaramide)], the “Calculated k2 values for the reaction between tetrazine activators and TCO 3.2 in PBS” value in data set [1] is 519 ± 12 M⁻¹ s⁻¹. In addition, in the data set on LS174T xenografts [5] (5× dose of activator), the “MMAE release in tumors, comparison of activators” value is given as “significantly higher release”. Also, the “free MMAE in tumors, comparison of activators” value in the data set on LS174T xenografts [5] (24 h after administration of activator at dose 1×) is listed as “No difference”. Also, the half-life at 16.6 µM in data set [2] is 4.2 ± 0.1 h. Moreover, in data set [3], the viability at 72 h, 0.01 μM is 105 ± 7.4%. The viability at 72 h, 0.1 μM in data set [3] turned out to be 96.9 ± 3%. Also, the viability at 72 h, 1 μM in data set [3] came to 93.9 ± 2.8%. Besides, in the data set on LS174T xenografts [6] (four cycles of tc-ADC (ca. 4 mg/kg) followed by activator 2.16 (ca. 33.5 μmol/kg) 48 later), the “time for which growth of LS174T tumors was completely inhibited” value was “over 3 weeks”. Moreover, in the data set on LS174T xenografts [6] (four cycles, one cycle every 4 days, treated group: tc-ADC ca. 4 mg/kg + 2.16 ca. 33.5 μmol/kg, controls: ADC alone, activator alone, or vehicle), the median overall survival came out at 42 days. Moreover, the “MMAE release from ADC AVP0458-TCO-MMAE, Release (%)” value in the data set with ADC AVP0458-TCO-MMAE (setting [7]) was determined as 1.9%; in the data set on ADC AVP0458-TCO-MMAE (10 min), 19.4%; in the data set with ADC AVP0458-TCO-MMAE (1 h), 70.7%; in the data set on ADC AVP0458-TCO-MMAE (5 h), 82.8%; in the data set on ADC AVP0458-TCO-MMAE (24 h, mean ± SD (n = 3)) it was 95.6 ± 0.6%. In the data set with ADC AVP0458-TCO-MMAE, the “MMAE release level, in words” value was “as high as that obtained with the less reactive 2.17”.
